The values that follow come from patent US10118954B2, “Apelin analogues” (University of Ulster, priority 2014, dated 2018).

Data set [1] deals with high fat fed NIH Swiss mice. Nature of the data set: 28 day long-term study of fatty acid apelin analogues, once daily i.p. administration. The data set is classed as in vivo. An excerpt: NIH Swiss mice (Harlan UK Ltd., Blackthorne, UK) were derived from a nucleus colony obtained from the National Institute of Health, Bethesda, Md., USA. One group of mice were maintained on a standard rodent diet (10% fat, 30% protein, 60% carbohydrate; percent of total energy 12.99 kJ/g, Trouw Nutrition, Cheshire, UK) and used as a model of normal glycaemia. Other NIH Swiss mice were maintained on a high fat diet (45% fat, 20% protein, 35% carbohydrate; percent of total energy 26.15 kJ/g; Dietex, Essex, UK) from 8 weeks of age for 150 days to produce a model of diet induced obesity-diabetes. […] All mice were housed in an air-conditioned room maintained at 22±2° C. with a 12 h light: 12 h dark cycle (08:00-20:00 h), were singly caged, and selected for experimental groups according to body weight and non-fasted blood glucose. Drinking water and diet were freely available. All animal studies were performed in accordance with the UK Animals (Scientific Procedures) Act 1986.
For another 28 day long-term study of selected fatty acid apelin analogues administered once daily, normal control NIH Swiss (n=8) and high-fat fed NIH Swiss (n=8) were grouped and received once daily i.p. injections of saline vehicle (0.9% NaCl (w/v)) at 17:00 h over a 4 day run-in period. Following the run-in period, normal control (n=8) and high-fat fed mice (n=8) received once daily (17:00 h) i.p. administration of saline vehicle (0.9% NaCl (w/v)) for 28 days. Additional groups of high-fat fed mice (n=8) received once daily i.p. injections of (Lys^8gluPal)apelin-13-amide, pGlu(Lys^8gluPal)apelin-13-amide or liraglutide (each at 25 nmol/kg bw) over a 28 day treatment period.
Food intake, body weight, blood glucose and plasma insulin were monitored at intervals of 2-3 days throughout the run-in and 28 day treatment period. Blood samples for glucose and plasma insulin measurement were collected at intervals throughout the study from the cut tail vein of conscious mice. Following the 28 day treatment period, oral, i.p. and meal test glucose tolerance ([…].), and insulin sensitivity (25 U/kg bw) tests were performed. Glucose was measured using an Ascensia Contour meter and blood was collected and processed for plasma insulin analysis by radioimmunoassay. Body weight and fat mass was also assessed using the PIXImus DEXA scanner whilst energy expenditure, intake, food intake and feeding bouts were assessed using the CLAMS metabolic chamber. HbA1c was analysed post 28 days using Bayer A1C Now^+ Multi Test meter. Lipid profile test was obtained by using the iLab analyser. Cholesterol, triglyceride and HDL-cholesterol levels were measured, in plasma (3 μl), using the iLab analyser. LDL-cholesterol levels were obtained using the Friedewald equation=total cholesterol−HDL−(triglycerides/3).

A short description of data set [2]: Degradation of apelin peptides by plasma from fasted normal NIH Swiss mice (rp-HPLC, MALDI-TOF MS). The data set is classed as in vitro ADME. Put shortly:
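Apelin peptides were incubated with plasma from fasted normal NIH Swiss mice for 4 h, and the reaction was stopped with TFA. Products were separated by C-8 rp-HPLC with detection at 214 nm. Peak fractions were identified by MALDI-TOF MS, giving fragment molecular weights and retention times.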

Where [3] appears, read: once daily 25 nmol/kg bw, 28 days.
[4] abbreviates: NIH Swiss, mouse, plasma, pH 7.4.

A word on the half-life: it is the time in which the quantity being followed falls by half. Broadly, the fraction remaining is the share of the starting amount still present when the sample was taken. Regarding `CCCCCCCCCCCCCCCC(=O)N[C@@H](CCC(=O)NCCCC[C@H](NC(=O)[C@H](Cc1c[nH]cn1)NC(=O)[C@H](CO)NC(=O)[C@H](CC(C)C)NC(=O)[C@H](CCCNC(=N)N)NC(=O)[C@@H]1CCCN1C(=O)[C@H](CCCNC(=N)N)NC(=O)[C@@H]1CCC(=O)N1)C(=O)NCC(=O)N1CCC[C@H]1C(=O)N[C@@H](CCSC)C(=O)N1CCC[C@H]1C(=O)N[C@@H](Cc1ccccc1)C(N)=O)C(=O)O` [pGlu(Lys^8GluPAL)apelin-13-amide], in data set [1] (after 28 days treatment), the HbA1c levels result is on record as “significantly reduced”. The molecule further gave a Percentage fat mass in data set [1] (after 28 days, DEXA analysis) of 30.1%. Further, the Insulin sensitivity result in data set [1] (after 28 days, insulin 25 U/kg bw) is “significantly improved”. The “Glucose tolerance and plasma insulin excursion in response to an i.p and oral glucose challenge” value in data set [1] (after the 28 day treatment period) is reported as “significantly improved”. In addition, the “HDL-cholesterol levels compared to the lean control and high fat fed mice” value in data set [1] (once daily) was “significantly increased”. In data set [1] (setting [3]), the Bodyweight reduction result is listed as “approximately 7%”; the “Day of study at which bodyweight was significantly decreased” value worked out at 16 days; the “Day of study at which circulating blood glucose began to be significantly reduced and plasma insulin increased” value is 13 days; the “Day of study at which food intake was significantly reduced” value came out at 8 days. Besides, the “LDL-cholesterol levels compared to the high fat fed controls” value in data set [1] (once daily, Friedewald equation) was “significantly lowered”. Besides, in data set [1] (once daily, high-fat fed mice), the Plasma triglyceride levels entry is “significantly lower” and the “Total cholesterol levels in plasma” value is given as “significantly lower”. The “Rank order of stability” value in data set [2] is “=1”. Also, in data set [2] (NIH Swiss, mouse, plasma, 263 µg/mL, pH 7.4), the “Half-life (t1/2)” value was above 24 h. In data set [2] (setting [4]), this molecule showed a half-life at 263 µg/mL above 24 h and a share remaining at 4 h, 263 µg/mL of 100%.
